Source: a compilation of properties of binary mixtures (doi:10.1021/acs.jced.9b00875)

Assay: xn = mol fraction of the nth substance listed
Settings: 101 kPa

CNC(C)=O + CCCC[n+]1ccn(C)c1.F[B-](F)(F)F
Settings	speed of sound [m/s]	viscosity [mPa·s]
293.15 K, x2 = 0	1406.2	5.56
293.15 K, x2 = 0.2042	1479.3	8.7
293.15 K, x2 = 0.27	1497.8	10.6
293.15 K, x2 = 0.3564	1517.3	14.28
293.15 K, x2 = 0.4992	1540.3	24.5
293.15 K, x2 = 0.5552	1546.9	30.2
293.15 K, x2 = 0.6389	1555.3	41
293.15 K, x2 = 0.714	1561.4	53.3
293.15 K, x2 = 0.8495	1569.8	82.6
293.15 K, x2 = 0.9302	1573.9	104.9
298.15 K, x2 = 0	1385.3	4.77
298.15 K, x2 = 0.1409	1440	6.18
298.15 K, x2 = 0.27	1480.6	8.7
298.15 K, x2 = 0.3564	1501.1	11.64
298.15 K, x2 = 0.4343	1516	15.46
298.15 K, x2 = 0.5552	1532.7	24.2
298.15 K, x2 = 0.6389	1542	32.6
298.15 K, x2 = 0.714	1548.6	42.1
298.15 K, x2 = 0.8495	1558	64.5
298.15 K, x2 = 0.9302	1562.5	81.6
303.15 K, x2 = 0	1366.3	4.09
303.15 K, x2 = 0.0711	1395.9	4.92
303.15 K, x2 = 0.2042	1444.8	6.38
303.15 K, x2 = 0.27	1464.5	7.32
303.15 K, x2 = 0.3564	1486	9.13
303.15 K, x2 = 0.4343	1501.4	11.57
303.15 K, x2 = 0.4992	1511.8	14.39
303.15 K, x2 = 0.5552	1519.2	17.5
303.15 K, x2 = 0.6389	1529.2	23.6
303.15 K, x2 = 0.714	1536.2	30.7
303.15 K, x2 = 0.7774	1541.2	38.1
303.15 K, x2 = 0.8495	1546.2	48.2
303.15 K, x2 = 0.9302	1551	62
308.15 K, x2 = 0.0711	1380.7	4.25
308.15 K, x2 = 0.1409	1408.3	4.86
308.15 K, x2 = 0.2042	1430.4	5.48
308.15 K, x2 = 0.27	1450.3	6.31
308.15 K, x2 = 0.3564	1472.3	7.85
308.15 K, x2 = 0.4343	1488.2	9.86
308.15 K, x2 = 0.4992	1498.9	12.11
308.15 K, x2 = 0.5552	1506.5	14.56
308.15 K, x2 = 0.6389	1516.8	19.2
308.15 K, x2 = 0.7774	1529.2	30.2
308.15 K, x2 = 0.8495	1534.1	37.8
308.15 K, x2 = 0.9302	1539.1	48
313.15 K, x2 = 0	1336.4	3.08
313.15 K, x2 = 0.0711	1367.7	3.76
313.15 K, x2 = 0.1409	1395.4	4.34
313.15 K, x2 = 0.2042	1417.6	4.86
313.15 K, x2 = 0.27	1437.6	5.5
313.15 K, x2 = 0.3564	1459.7	6.64
313.15 K, x2 = 0.4343	1475.8	8.12
313.15 K, x2 = 0.5552	1494.8	11.64
313.15 K, x2 = 0.6389	1505	15.21
313.15 K, x2 = 0.714	1512	19.4
313.15 K, x2 = 0.7774	1517.5	23.7
313.15 K, x2 = 0.8495	1522.3	29.7
313.15 K, x2 = 0.9302	1527	37.8
318.15 K, x2 = 0	1325.2	2.76
318.15 K, x2 = 0.2042	1406.7	4.13
318.15 K, x2 = 0.27	1426.7	4.62
318.15 K, x2 = 0.3564	1448.6	5.5
318.15 K, x2 = 0.4343	1464.7	6.68
318.15 K, x2 = 0.4992	1476	8.04
318.15 K, x2 = 0.5552	1484.1	9.55
318.15 K, x2 = 0.6389	1493.8	12.51
318.15 K, x2 = 0.714	1501	16
318.15 K, x2 = 0.7774	1506.1	19.7
318.15 K, x2 = 0.8495	1510.8	24.7
318.15 K, x2 = 0.9302	1514.9	31.6

CCCC[n+]1ccn(C)c1.F[B-](F)(F)F + CNC(C)=O
x1 = 1
Settings	speed of sound [m/s]	viscosity [mPa·s]
298.15 K	1565.8	98.9
303.15 K	1554.5	76.3
308.15 K	1542.7	58.4
313.15 K	1530.5	46.2
318.15 K	1518	38.7
